The test system of assay [1] is Skin explants from gestational day 17 rats. Nature of the assay: Light and electron microscopy of fetal rat skin explants (epidermal maturation). The class given is cell-based. The procedure: Samples for light microscopy were fixed in modified Karnovsky's solution, plastic-embedded, and 0.5 μm sections were stained with toluidine. Samples for electron microscopy were minced into 1 mm^3 pieces, fixed in modified Karnovsky's fixative, and processed. Sections were stained with uranyl acetate and lead citrate, post-fixed in ruthenium tetroxide, and examined using a Zeiss 10A electron microscope.
Explants incubated in various media woe examined by light microscopy. The incubation di included control medium (containing no activators) and various media individually containing 300 μM clofibrate, 100 μM juvenile hormone III, 300 μM oleic acid, 30 μM linoleic acid, 50 μM farnesol, and various concentrations of 9-cis-retinoic acid, all-trans-retinoic acid, and 1,25-dihydroxy vitamin D3.
Observations were then made of the ultrastructural maturation of the outer epidermis in explants that had been incubated in the various media and then post-fixed in ruthenium tetroxide. Media identical to those of the preceding paragraph were used, excluding the retinoic acid-containing and 1,25-dihydroxy vitamin D3-containing media.

For the next assay, the system named is fetal rodent skin. The settings on record: earlier studies (Hanley et al. 1996); cited from earlier work.
Assay [2] concerns full-thickness flank skin from the fetal rats. Nature of the assay: Transepidermal water loss (TEWL) of fetal rat skin explants in organ culture (barrier function). The assay is classed as cell-based, Sprague-Dawley rats. The procedure:
Timed pregnant Sprague-Dawley rats (plug date=day 0) were obtained from Simonsen (Gilroy, Calif., USA) and fetuses were delivered prematurely on day 17. Transepidermal water loss (TEWL) was measured in excised full-thickness flank skin from the fetal rats after various times in culture. The skin explants were placed dermis-side down onto collagen membrane inserts (3μ pore size) in medium M-199 (serum-free), and submerged, and the lateral edges and dermal surface were sealed with petrolatum, such that water loss occurred only through the epidermal surface. Explant samples were weighed hourly, at ambient temperature (24±3° C.) and humidity (40±5%), over 6 hours using a Cahn balance (sensitivity 0.001 mg). TEWL levels are reported as milligrams of water lost per square millimeter of epidermal surface per hour. Fatty acids and clofibrate (p-chlorophenoxyisobutyric acid) were added to the medium bound to 0.5% (weight/volume) bovine serum albumin (BSA). Isoprenoids and oxysterols were added in ethanol (≦0.1%) and juvenile hormone III was added as a dimethylsulfoxide (DMSO) solution (≦0.1%). Control explants were incubated in the presence of the appropriate vehicle (≦0.1% DMSO or ethanol, and/or ≦0.5% BSA). Skin explants from gestational day 17 rats were incubated in the presence of either various activators or vehicle, and transepidermal water loss was measured after two days. The activators and the concentrations at which they were used were as follows: […]

Another assay has as its system β-Glucocerebrosidase. Nature of the assay: β-Glucocerebrosidase activity in epidermis of treated fetal rat skin explants. The assay is classed as cell-based, rats. The settings on record: clofibrate (300 μM), juvenile hormone III (100 μ), mean of five ± SEM. The procedure: (§1) Epidermis was separated from dermis after incubation in 10 mM ethylenediamine tetraacetic acid (EDTA) in Ca^++- and Mg^++-free phosphate-buffered saline (PBS), pH 7.4, at 37° C. for 30-40 minutes. The tissues were then minced, and homogenized on ice (three times at 15 seconds each with a Polytron homogenizer, followed by sonication twice at ten seconds each at 35% power) in either PBS containing 0.1 mM phenylmethylsulfonyl fluoride (PMSF) and 0.1% Triton X-100 (for β-glucocerebrosidase) or in 10 mM Tris (PH 7.5) containing 0.15 M sucrose and 2 mM EDTA (for steroid sulfatase). β-Glucocerebrosidase activity was measured in the supernatant following centrifugation at 10,000×g for fifteen minutes at 4° C. Steroid sulfatase activity was measured in the microsomal fraction resulting from a […] centrifugation (10 minutes, 4° C.) followed by 60 minutes of 100,000×g ultracentrifugation at 4° C. Protein content was measured by conventional techniques.
β-Glucocerebrosidase) activity was assayed using the synthetic substrate 4-methylumbelliferyl β-D-glucoside (4-MUG). The assays were performed in 5 mM sodium taurocholate in citrate-phosphate buffer (pH 5.6) with 0.5 mM 4-MUG for sixty minutes at 37° C., with a final assay volume of 100 μL, and protein concentration of 1-2 mg/mL. The reaction was terminated with 2 mL of carbonate-bicarbonate buffer (pH 10.5). The fluorescence was then measured at […] (excitation) and 450 λ (emission) and compared with a standard 4-methylumbelliferone (4-MU) curve.
(§2) Skin explants from 17-day fetal rats were incubated for 24 or 48 hours in media individually containing clofibrate (300 μM) and juvenile hormone III […], and control media. Enzyme activity was measured and the results are presented in Table I as the mean values of five determinations±SEM (standard error of the mean). All p values are ≦0.005 compared with controls of the same time period.

A further assay concerns Steroid Sulfatase. Nature of the assay: Steroid sulfatase activity in epidermis of treated fetal rat skin explants. The assay is classed as cell-based, rats. The settings on record: clofibrate (300 μM), juvenile hormone III (100 μ), mean of five ± SEM. As for the experimental part: as §1
Steroid sulfatase activity was measured by incubating 100 μg of microsomal protein in 0.1 M Tris containing 5.6 mM glucose (pH 7.4) with 15 μM, (^3H) dihydroepiandrosterone sulfate (DHEAS) (15 μCi) in a final volume of 1.1 mL The product, (^3H) DHEA, was extracted with benzene and an aliquot counted by scintillation spectrophotometry.
as §2

Assay [3] deals with Normal human keratinocytes. Nature of the assay: Cornified envelope formation (35S incorporation) in keratinocytes. The class given is cell-based. The settings on record: 15 μM, 0.03 mM calcium, 48-hour.

This is an account of results in patent publication USRE37770E1, “Treatment of skin conditions by use of PPARα activators” (The Regents of the University of California, priority 1997, dated 2002).

Regarding `CC1=C(/C=C/C(C)=C/C=C/C(C)=C/C(=O)O)C(C)(C)CCC1` [all-trans-retinoic acid], the “light microscopy of the epidermis” value in assay [1] (various concentrations) is given as “did not exhibit a distinct stratum corneum”. Also, the “acceleration of the appearance of a mature barrier in fetal rodent skin” value (shortened to “acceleration”) in the assay with fetal rodent skin is “had no effect”.
For the compound `COC(=O)C=C(C)CCC=C(C)CCC1OC1(C)C` (stereo not drawn) [juvenile hormone III, 7-methyl-9-(3,3-dimethyloxiranyl)-3-methyl-2,6-nonadienoic acid methyl ester], the “effect on TEWL / barrier formation” value in assay [2] (100 μM, two days) is on record as “significantly accelerated barrier formation”. Besides, in assay [2] (Rattus norvegicus, dose response, FIGS. 4a-4c, read-out: concentration of half-maximal effect on barrier development (TEWL)), the EC50 was about 75 µM. Further, the “concentration of maximal effect on barrier development (TEWL)” value in assay [2] (dose response, FIGS. 4a-4c) is recorded as “approximately 250 μM”. In addition, in assay [1] (100 μM, 48 hours), the “light microscopy of the epidermis” value was “had both a multi-layered stratum granulosum and a stratum corneum”. The “β-Glucocerebrosidase Activity” value with β-Glucocerebrosidase (24-Hour Incubation) worked out at 2.89 ± 0.20 nmol/min/mg; in the assay on β-Glucocerebrosidase (48-Hour Incubation) it was 5.20 ± 0.62 nmol/min/mg. The “Steroid Sulfatase Activity” value came out at 12.55 ± 1.25 pmol/h/mg with Steroid Sulfatase (24-Hour Incubation) and 18.23 ± 2.35 pmol/h/mg in the assay with Steroid Sulfatase (48-Hour Incubation). Moreover, in assay [3], the “rate of cornified envelope formation” value is “substantial increases in the rate of cornified envelope formation”.
As for `CC1=C(/C=C/C(C)=C\C=C\C(C)=C\C(=O)O)C(C)(C)CCC1` [9-cis-retinoic acid], the “light microscopy of the epidermis” value in assay [1] (various concentrations) was “did not exhibit a distinct stratum corneum”. Moreover, the “acceleration” value with fetal rodent skin is reported as “had no effect”.
As to `C=C1/C(=C\C=C2/CCC[C@]3(C)[C@@H]([C@H](C)CCCC(C)(C)O)CC[C@@H]23)C[C@@H](O)C[C@@H]1O` [1,25-dihydroxyvitamin D3], in assay [1] (various concentrations), the “light microscopy of the epidermis” value is listed as “did not exhibit a distinct stratum corneum”. Also, in the assay with fetal rodent skin, the “acceleration” value is on record as “had no effect”.
